According to patent US7425551B2, “Malonamide derivatives” (Hoffmann-La Roche Inc., priority 2006, dated 2008):

target: T1, γ-secretase (Homo sapiens, UniProt P49768); experiment: in vitro assay of γ-secretase activity (HEK293 membrane fraction, recombinant APP substrate, Abeta ELISA); assay type: biochemical; settings: γ-secretase inhibition; HEK293 membrane fraction solubilized in 0.25% CHAPSO, recombinant human APP C-terminal 100 amino acids substrate, Abeta detected by ELISA
T1 construct: uses a HEK293 membrane fraction as a source of γ-secretase; endogenous in cells; host or cells: HEK293 (microsomal membrane fraction, solubilised in 0.25% CHAPSO)
From the text: Description of 1γ-Secretase Assay The activity of test compounds can be evaluated in assays which measure the proteolytic cleavage of suitable substrates by γ-secretase activity. These can be cellular assays where e.g., a substrate of the γ-secretase is fused in its cytoplasmic domain to a transcription factor. Cells are transfected with this fusion gene and a reporter gene, e.g., firefly luciferase, which expression is enhanced by the transcription factor. Cleavage of the fused substrate by γ-secretase will lead to expression of the reporter gene which can be monitored in appropriate assays. The γ-secretase activity can also be determined in cell-free in vitro assays where e.g., a cell lysate containing the γ-secretase complex is incubated with a suitable APP-derived substrate which is cleaved to the Abeta peptides. The amount of produced peptides can be determined with specific ELISA assays. Cell lines of neuronal origin secrete Abeta peptides which can be measured with the specific ELISA assay. Treatment with compounds which inhibit γ-secretase leads to a reduction of secreted Abeta thus providing a measure of inhibition. The in vitro assay of γ-secretase activity uses a HEK293 membrane fraction as a source of γ-secretase and a recombinant APP substrate. Latter consist of the C-terminal 100 amino acids of human APP fused to a 6× Histidin tail for purification which is expressed in E. coli in a regulatable expression vector, e.g. pEt15. This recombinant protein corresponds to the truncated APP fragment which results after […] of the extracellular domain and which constitutes the γ-secretase substrate. The assay principle is described in Li Y M et al, PNAS 97(11), 6138-6143 (2000). Hek293 cells are mechanically disrupted and the microsomal fraction is isolated by differential centrifugation. The membranes are solubilized in detergent (0.25% CHAPSO) and incubated with the APP substrate. The Abeta peptides which are produced by γ-secretase cleavage of the substrate are detected by specific ELISA assays as described (Brockhaus M et al, Neuroreport 9(7), 1481-1486 (1998).

| Compound | IC50 [nM] |
| --- | --- |
| CCOC(C(=O)NCC(F)(F)C(F)(F)F)C(=O)N[C@@H]1C(=O)N(CCO)c2ccccc2-c2ccccc21 (stereo partly drawn) [Example 17, 2-Ethoxy-N—[(S)-5-(2-hydroxy-ethyl)-6-oxo-6,7-dihydro-5H-dibenzo[b,d]azepin-7-yl]-N′-(2,2,3,3,3-pentafluoro-propyl)-malonamide] | 4 |
| C[C@H](OC(=O)NCCF)C(=O)N[C@@H]1C(=O)N(CCO)c2ccccc2-c2ccccc21 [Example 47, (2-Fluoro-ethyl)-carbamic acid (S)-1-[(S)-5-(2-hydroxy-ethyl)-6-oxo-6,7-dihydro-5H-dibenzo[b,d]azepin-7-ylcarbamoyl]-ethyl ester] | 755 |
| CCOC(C(=O)NCC(F)(F)C(F)(F)F)C(=O)N[C@@H]1C(=O)N(CCOCc2ccccc2)c2ccccc2-c2ccccc21 (some centres unmarked) [Example 14] | 8 |
| C[C@@](O)(C(=O)NCC(F)(F)F)C(=O)N[C@@H]1C(=O)N(CCO)c2ccccc2-c2ccccc21 [Example 59, (R)-2-Hydroxy-N—[(S)-5-(2-hydroxy-ethyl)-6-oxo-6,7-dihydro-5H-dibenzo[b,d]azepin-7-yl]-2-methyl-N′-(2,2,2-trifluoro-ethyl)-malonamide] | 190 |
| O=C(CC(=O)N[C@@H]1C(=O)N(CCO)c2ccccc2-c2ccccc21)NCCC(F)(F)C(F)(F)F [Example 31, N—[(S)-5-(2-Hydroxy-ethyl)-6-oxo-6,7-dihydro-5H-dibenzo[b,d]azepin-7-yl]-N′-(3,3,4,4,4-pentafluoro-butyl)-malonamide] | 200 |
| CC(C)(C(=O)NCC(F)(F)C(F)(F)F)C(=O)N[C@@H]1C(=O)N(CCOc2ccc(F)cc2)c2ccccc2-c2ccccc21 [Example 69, N-{(S)-5-[2-(4-Fluoro-phenoxy)-ethyl]-6-oxo-6,7-dihydro-5H-dibenzo[b,d]azepin-7-yl}-2,2-dimethyl-N′-(2,2,3,3,3-pentafluoro-propyl)-malonamide] | 6 |
| COCCN1C(=O)[C@@H](NC(=O)CC(=O)NCC(F)(F)C(F)(F)F)c2ccccc2-c2ccccc21 [Example 24, N—[(S)-5-(2-Methoxy-ethyl)-6-oxo-6,7-dihydro-5H-dibenzo[b,d]azepin-7-yl]-N′-(2,2,3,3,3-pentafluoro-propyl)-malonamide] | 34 |
| CC(O)(C(=O)NCC(F)(F)C(F)(F)F)C(=O)N[C@@H]1C(=O)N(CCOCc2ccccc2)c2ccccc2-c2ccccc21 (stereo partly drawn) [Example 12, N—[(S)-5-(2-Benzyloxy-ethyl)-6-oxo-6,7-dihydro-5H-dibenzo[b,d]azepin-7-yl]-2-hydroxy-2-methyl-N′-(2,2,3,3,3-pentafluoro-propyl)-malonamide] | 10 |
| C[C@@](F)(C(=O)NCC(F)(F)F)C(=O)N[C@@H]1C(=O)N(CCO)c2ccccc2-c2ccccc21 [Example 53, (R)-2-Fluoro-N—[(S)-5-(2-hydroxy-ethyl)-6-oxo-6,7-dihydro-5H-dibenzo[b,d]azepin-7-yl]-2-methyl-N′-(2,2,2-trifluoro-ethyl)-malonamide] | 9 |
| CC(O)(C(=O)NCC(F)(F)C(F)(F)F)C(=O)N[C@@H]1C(=O)N(CCO)c2ccccc2-c2ccccc21 (single isomer, unassigned; epimer b) [Example 21] | 1 |
| COCCN1C(=O)[C@@H](NC(=O)C(C)(O)C(=O)NCC(F)(F)C(F)(F)F)c2ccccc2-c2ccccc21 (stereo partly drawn) [Example 34, 2-Hydroxy-N—[(S)-5-(2-methoxy-ethyl)-6-oxo-6,7-dihydro-5H-dibenzo[b,d]azepin-7-yl]-2-methyl-N′-(2,2,3,3,3-pentafluoro-propyl)-malonamide] | 4 |
| C[C@](O)(C(=O)NCC(F)(F)F)C(=O)N[C@@H]1C(=O)N(CCO)c2ccccc2-c2ccccc21 [Example 60, (S)-2-Hydroxy-N—[(S)-5-(2-hydroxy-ethyl)-6-oxo-6,7-dihydro-5H-dibenzo[b,d]azepin-7-yl]-2-methyl-N′-(2,2,2-trifluoro-ethyl)-malonamide] | 4 |
| COC(C(=O)NCC(F)(F)C(F)(F)F)C(=O)N[C@@H]1C(=O)N(CCOCc2ccccc2)c2ccccc2-c2ccccc21 (stereo partly drawn) [Example 10, N—[(S)-5-(2-Benzyloxy-ethyl)-6-oxo-6,7-dihydro-5H-dibenzo[b,d]azepin-7-yl]-2-methoxy-N′-(2,2,3,3,3-pentafluoro-propyl)-malonamide] | 49 |
| C[C@](F)(C(=O)NCC(F)(F)F)C(=O)N[C@@H]1C(=O)N(CCOCc2ccccc2)c2ccccc2-c2ccccc21 [Example 43, (S)—N—[(S)-5-(2-Benzyloxy-ethyl)-6-oxo-6,7-dihydro-5H-dibenzo[b,d]azepin-7-yl]-2-fluoro-2-methyl-N′-(2,2,2-trifluoro-ethyl)-malonamide] | 13 |
| O=C(CC(=O)N[C@@H]1C(=O)N(CCO)c2ccccc2-c2ccccc21)NCC(F)(F)C(F)(F)F [Example 9, N—[(S)-5-(2-Hydroxy-ethyl)-6-oxo-6,7-dihydro-5H-dibenzo[b,d]azepin-7-yl]-N′-(2,2,3,3,3-pentafluoro-propyl)-malonamide] | 19 |
| CC(O)(C(=O)NCCC(F)(F)F)C(=O)N[C@@H]1C(=O)N(CCOCc2ccccc2)c2ccccc2-c2ccccc21 (stereo partly drawn) [Example 63, N—[(S)-5-(2-Benzyloxy-ethyl)-6-oxo-6,7-dihydro-5H-dibenzo[b,d]azepin-7-yl]-2-hydroxy-2-methyl-N′-(3,3,3-trifluoro-propyl)-malonamide] | 2 |
| C[C@@](F)(C(=O)NCC(F)(F)C(F)(F)F)C(=O)N[C@@H]1C(=O)N(CCOCc2ccccc2)c2ccccc2-c2ccccc21 [Example 22, (R)—N—[(S)-5-(2-Benzyloxy-ethyl)-6-oxo-6,7-dihydro-5H-dibenzo[b,d]azepin-7-yl]-2-fluoro-2-methyl-N′-(2,2,3,3,3-pentafluoro-propyl)-malonamide] | 2 |
| COCCN1C(=O)[C@@H](NC(=O)[C@](C)(F)C(=O)NCC(F)(F)C(F)(F)F)c2ccccc2-c2ccccc21 [Example 33, (R)-2-Fluoro-N—[(S)-5-(2-methoxy-ethyl)-6-oxo-6,7-dihydro-5H-dibenzo[b,d]azepin-7-yl]-2-methyl-N′-(2,2,3,3,3-pentafluoro-propyl)-malonamide] | 4 |
| C[C@](F)(C(=O)NCC(F)(F)C(F)(F)F)C(=O)N[C@@H]1C(=O)N(CCO)c2ccccc2-c2ccccc21 [Example 27, (S)-2-Fluoro-N—[(S)-5-(2-hydroxy-ethyl)-6-oxo-6,7-dihydro-5H-dibenzo[b,d]azepin-7-yl]-2-methyl-N′-(2,2,3,3,3-pentafluoro-propyl)-malonamide] | 4 |
| CCOC(C(=O)NCC(F)(F)C(F)(F)F)C(=O)N[C@@H]1C(=O)N(CCO)c2ccccc2-c2ccccc21 (single isomer, unassigned; epimer a) [Example 18, (S or R)-2-Ethoxy-N—[(S)-5-(2-hydroxy-ethyl)-6-oxo-6,7-dihydro-5H-dibenzo[b,d]azepin-7-yl]-N′-(2,2,3,3,3-pentafluoro-propyl)-malonamide, epimer A] | 7 |
| C[C@](O)(C(=O)NCC(F)(F)F)C(=O)N[C@@H]1C(=O)N(CCOCc2ccccc2)c2ccccc2-c2ccccc21 [Example 58, (S)—N—[(S)-5-(2-Benzyloxy-ethyl)-6-oxo-6,7-dihydro-5H-dibenzo[b,d]azepin-7-yl]-2-hydroxy-2-methyl-N′-(2,2,2-trifluoro-ethyl)-malonamide] | 8 |
| O=C(CC(=O)N[C@@H]1C(=O)N(CCOCc2ccccc2)c2ccccc2-c2ccccc21)NCCC(F)(F)F [Example 28, N—[(S)-5-(2-Benzyloxy-ethyl)-6-oxo-6,7-dihydro-5H-dibenzo[b,d]azepin-7-yl]-N′-(3,3,3-trifluoro-propyl)-malonamide] | 68 |
| C[C@@](F)(C(=O)NCC(F)(F)C(F)(F)F)C(=O)N[C@@H]1C(=O)N(CCO)c2ccccc2-c2ccccc21 [Example 26, (R)-2-Fluoro-N—[(S)-5-(2-hydroxy-ethyl)-6-oxo-6,7-dihydro-5H-dibenzo[b,d]azepin-7-yl]-2-methyl-N′-(2,2,3,3,3-pentafluoro-propyl)-malonamide] | 1 |
| O=C(CC(=O)N[C@@H]1C(=O)N(CCO)c2ccccc2-c2ccccc21)NCCC(F)(F)F [Example 30, N—[(S)-5-(2-Hydroxy-ethyl)-6-oxo-6,7-dihydro-5H-dibenzo[b,d]azepin-7-yl]-N′-(3,3,3-trifluoro-propyl)-malonamide] | 75 |
| COCCN1C(=O)[C@@H](NC(=O)C(C)(O)C(=O)NCC(F)(F)C(F)(F)F)c2ccccc2-c2ccccc21 (single isomer, unassigned; epimer a) [Example 45] | 9 |
| CC(O)(C(=O)NCCC(F)(F)F)C(=O)N[C@@H]1C(=O)N(CCO)c2ccccc2-c2ccccc21 (single isomer, unassigned; epimer a) [Example 65, (R or S)-2-Hydroxy-N—[(S)-5-(2-hydroxy-ethyl)-6-oxo-6,7-dihydro-5H-dibenzo[b,d]azepin-7-yl]-2-methyl-N′-(3,3,3-trifluoro-propyl)-malonamide, epimer A] | 39 |
